Laboratory results from patent US9067920B2, “Compounds useful for inhibiting Chk1” (Eli Lilly and Company, priority 2010, dated 2015).
Structures can show the parent of a compound that is named as a salt.

Assays:
[1] = tested on: HT-29 colon tumor xenograft; assay: HT-29 tumor xenograft model, subcutaneous administration of Chk1 inhibitor; assay type: in vivo, nude mice
Experimental: The ability of Chk1 inhibitors to potentiate tumor killing by DNA damaging agents can be determined in vivo using the Calu-6 lung and HT-29 colon tumor xenograft efficacy models. Calu-6 lung cancer cells are cultured in growth media (MEM with Earle's Balanced Salt Solution with L-glutamine supplemented with 10% (v/v) heat inactivated FBS, 1×MEM non-essential amino acids, 1× sodium pyruvate) and HT-29 colon cancer cells (ATCC) are cultured in growth media, (McCoy's 5A medium supplemented with 10% FBS) and expanded.
Cells are harvested and washed twice with phosphate buffered saline and 5×10^6 cells (HT-29) or 1×10^6 a cells (Calu-6) in growth media (without serum) are mixed with equal volume of BD Matrigel™ matrix, then injected subcutaneously into the flank of nude mice (CD-1 nu/nu).
At about day 16 after implant ([…]), gemcitabine is formulated fresh in saline daily and administered to animals by intraperitoneal route at 60 mg/kg dose. Twenty four hours later animals are administered the compound of Example 3, in 0.2% Tween-80/0.5% methylcellulose subcutaneously BID. After […], dosing is repeated for three additional cycles (Q4Dx4 with the compound of Example 3 offset+24 hours), Tumor growth inhibition (TGI) is calculated as the percent reduction in mean tumor size of a compound treated group from the mean tumor size of the vehicle-treated control group. Compounds within the scope of the invention are tested in this assay run substantially as above.

Chk1 = biological target: T1, Chk1 (Homo sapiens, UniProt O14757); assay: Chk1 in vivo target inhibition assay (Calu-6 xenograft, phospho-Chk1 ser296); design: from tissue; host or cells: Calu-6 xenograft tumour from nude mice; species or system nude mice; settings: Calu-6 tumors, oral, 6 h after gemcitabine 150 mg/kg ip, 2 h post dose
T1 sequence (O14757 1-476): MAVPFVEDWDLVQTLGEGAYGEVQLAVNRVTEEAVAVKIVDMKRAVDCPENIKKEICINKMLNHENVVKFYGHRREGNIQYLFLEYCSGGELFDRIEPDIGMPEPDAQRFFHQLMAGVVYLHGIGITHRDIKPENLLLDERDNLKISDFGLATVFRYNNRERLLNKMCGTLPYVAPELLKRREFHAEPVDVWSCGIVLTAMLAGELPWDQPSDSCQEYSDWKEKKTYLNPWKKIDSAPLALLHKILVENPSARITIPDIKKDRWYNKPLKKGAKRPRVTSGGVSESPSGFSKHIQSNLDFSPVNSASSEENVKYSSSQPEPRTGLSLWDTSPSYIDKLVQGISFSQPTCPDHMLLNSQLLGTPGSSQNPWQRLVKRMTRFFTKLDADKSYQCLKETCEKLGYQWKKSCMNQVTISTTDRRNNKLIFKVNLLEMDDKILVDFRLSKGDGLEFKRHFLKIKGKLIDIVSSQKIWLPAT
Experimental: Calu-6 cells are cultured in growth media (MEM with Earle's Balanced Salt Solution with L-glutamine supplemented with […], 1×MEM non-essential amino acids, 1× sodium pyruvate) and expanded. Cells are harvested and washed twice with phosphate buffered saline and 1×10^6 cells in growth media (without serum) are mixed with equal volume of BD Matrigel™ matrix, then injected subcutaneously into the flank of pre-irradiated (4.5 Gy) nude mice (athymic nude). At day 15 after implant (tumor size=150-200 mm^3), gemcitabine formulated fresh in saline daily is administered to animals by intraperitoneal route at 150 mg/kg dose. […] Antigen-antibody-reporter conjugates immobilized on the membrane are detected with the Super Signal Western Femto HRP-detection reagent.
Signals are detected and captured using the FUJI LAS-4000 imaging system. Phospho-Chk1(ser296) band intensities are calculated using “Total Lab” software (Nonlinear Dynamics). The percent inhibition of the gemcitabine induced Chk1 autophosphorylation is calculated by using the following formula: % inhibition=(sample-phospho-Chk1 band—intensity average gemcitabine (Max) positive control-phospho-Chk1 band intensity)/(average negative control (Min)-phosphor-Chk1 band intensity—average gemcitabine (Max) positive control-phospho-Chk1 band intensity)×100.

Target Modulatory Effective Dose 50 (TMED50) for Chk1 autophosphorylation (Chk1): 1.3 mg/kg
Structure (SMILES): COc1nc(C)ccc1-c1cc(Nc2cncc(O[C@@H]3CCCNC3)n2)[nH]n1 [Example 3, (R)-[5-(2-Methoxy-6-methyl-pyridin-3-yl)-2H-pyrazol-3-yl]-[6-(piperidin-3-yloxy)-pyrazin-2-yl]-amine acetic acid salt]
% TGI at day 38 ([1]; HT29, Example 3 40 mpk subcutaneous BID alone): 26%
anti-tumor activity in combination with gemcitabine ([1]; HT-29 xenograft, subcutaneous BID, gemcitabine 60 mg/kg ip): excellent dose dependent anti-tumor activity
increase in tumor growth inhibition over gemcitabine alone ([1]; subcutaneous, stated for HT-29 and Calu-6 models together): up to a six-fold increase in tumor growth inhibition over gemcitabine alone
